From patent publication US20110207119A1, “METHODS FOR PREDICTING A CANCER PATIENT'S RESPONSE TO SUNITINIB” (priority 2010, published 2011)

Test system: primary breast carcinoma cultures
Test: in vitro chemoresponse assay on primary breast carcinoma cultures (DAPI nuclei count, aAUC of dose response curve)
Format: cell-based
Conditions: 39 primary breast cancer cultures, single agent, 10 doses 0.108-55.3 μM, 72 hours
Protocol: After assay development, thirty-nine primary breast carcinoma cultures were treated with sunitinib at the doses shown in Table 1.
All specimens treated with the drug were confirmed to contain a majority of epithelial cells (>65%) via immunocytochemistry. A 10-dose range of drug concentrations was used to treat the cell line and breast specimens for 72 hours. After treatment, the cultures were fixed with ethanol, and stained with DAPI. Any cells remaining adherent after treatment were considered live, and the DAPI stained nuclei were counted. The resulting dose response curves were analyzed.
aAUC values were calculated, essentially as follows:
(Xi is the normalized cell count of dose i)

SMILES: CCN(CC)CCNC(=O)c1c(C)[nH]c(/C=C2\C(=O)Nc3ccc(F)cc32)c1C [sunitinib, Sunitinib]
- share of breast specimens responsive to sunitinib (aAUC of ≦7.85) (3 of 39): 7.6%
- share of breast specimens with intermediate response (aAUC of 7.85-9.22) (8 of 39): 20.5%
- share of breast specimens non-responsive to the drug (aAUC of ≧9.22) (28 of 39): 71.7%
